Molecular target: T1, 5α-reductase (Homo sapiens, UniProt P18405)
T1 construct: endogenous in cells; host or cells: DU145 prostate carcinoma cells (ATCC HTB 81)
T1 sequence (P18405 1-259): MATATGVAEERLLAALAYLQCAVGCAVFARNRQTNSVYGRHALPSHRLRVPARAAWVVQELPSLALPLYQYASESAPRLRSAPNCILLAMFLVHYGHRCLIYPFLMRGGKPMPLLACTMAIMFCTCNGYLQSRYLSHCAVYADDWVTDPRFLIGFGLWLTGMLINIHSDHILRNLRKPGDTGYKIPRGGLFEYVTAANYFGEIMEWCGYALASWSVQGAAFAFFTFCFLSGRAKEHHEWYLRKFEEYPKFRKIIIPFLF
Assay: Inhibition of the 5α-reductase of DU145 cells: quantity of 5-dihydrotestosterone formed from testosterone (RIA)
Format: cell-based
Method: The prostatic cells DU145 are derived from a tumor line obtained from a prostate carcinoma (ATCC No. HTB 81). The MEM medium (ref. 0410265), the glutamine and the gentamycin are from Gibco. The fetal calf serum (FCS) is from DAP and is used decomplementized ([…] at 56° C.). The plastics serving for the culture (dishes and plates) are from Costar. The testosterone is from Sigma.
A stock solution in ethanol at 10 mg/ml is prepared from each of the products tested.
The concentration range used for the experiments is the following: 0, 5, 10, 50, 100 and 500 micrograms/ml. (Dilution performed in the culture medium).
The volume of extract added per well being 20 microliters/well, the solutions to be prepared are concentrated 50×.
A stock solution of testosterone at 10 mM is prepared in ethanol. At the time of its use, this solution is diluted 1:1 000 in the culture medium and 10 microliters are added per well.
The prostatic cells DU145 are cultured at 37° C., 5% Co2 in an MEM medium containing glutamine (2 mM), gentamycin (50 micrograms/ml) and 10% FCS. Their subculture rate is 1:10.
Before starting the experiment, the cells are placed in culture in 6-well plates at the rate of 2×10^5 DU145 cells per well/1 ml of medium containing only 1% FCS. The cells are maintained for 3 days at 37° C., 5% CO2. […]

**Q.** What does the source list for `CCCCCCCC/C=C\CCCCCCCC(=O)OC` [Methyl oleate, methyl oleate]?
**A.** 5α-reductase inhibitory activity, in words (conclusions of Example 2): markedly less active than the methyl esters of avocado; IC50 (testosterone 0.1 micromolar, 3 hours, read-out: IC 50, conversion of testosterone to 5-dihydrotestosterone by the DU 145 cells (converted)): 1300 µM

From patent US8318186B2, “Use of at least a fatty ester for preparing a composition designed to inhibit 5-α-reductase activity, in pharmacology, in particular dermatology, in cosmetics and as food additive” (Laboratoires Expanscience, priority 2000, dated 2012)
